In patent US9012481B2, “Benzoarylureido compounds, and composition for prevention or treatment of neurodegenerative brain disease containing the same” (Korea Institute of Science and Technology, priority 2009, dated 2015):

Key:
phospho-ERK1 = experiment: Immunoblotting of phospho-ERK1 in beta-amyloid stimulated BV-2 cell culture; assay type: cell-based
Experimental: (§1) The beta-amyloid treated cells (6-well of 5×10^5 cells/3 Ml, allotted from Pharmacology Division of Ajou University) were collected, and washed with phosphate-buffered saline (PBS). After centrifugation, the cells were dissolved in 0.1 ml of RIPA buffer (containing 150 mM NaCl, 1% NP-40, 0.5% sodium deoxycholate, 0.1% SDS, 50 mM Tris-HCl, pH 7.4, 50 mM glyycerophosphate, 20 mM NaF, 20 mM EGTA, 1 mM DTT, 1 mM Na3VO4, and protease inhibitor) at 4° C. for 15 minutes by strong shaking. The cells were cultivated in ice for 10 minutes, the lysate was centrifuged at 14,000 rpm for 5 minutes. 20 μg of a protein obtained from the cell lysate was heated, and then, electrophoresed on 12% polyacrylamide gel under reduction condition. The cells were incubated in blocking buffer (20 mM Tris, pH 7.4-buffer saline containing 0.1% tween 20 containing 5% lipid-free dried milk) for 1 hour, to suppress non-specific binding. […]
To examine the effect of compound KHG25967 on phosphorylation of ERK (extracellular signal-regulated kinase) and expression of caspase 3 by beta-amyloid, a possible protein expression of ERK1/2 (extracellular signal-regulated kinase 1 & 2) and caspase 3 in BV-2cell culture stimulated with beta-amyloid were measured. […]

[1] = system: tumor necrosis factor-alpha; experiment: LPS-induced tumor necrosis factor-alpha in brain and serum of C57BL/6 mice; assay type: in vivo; details: oral KHG25967 10 mg/kg or 20 mg/kg every day for 2 weeks, then LPS 10 mg/kg into brain, 6 hours
Experimental: (§2) The animal experiment was performed using C57BL/6 mice ([…], 12-14 weeks old, Harlan Sprague Dawley inc, Indianapolis, Ind., USA) by stereotaxis. The intracerebroventricular (ICV) injection was according to the intracerebroventricular injection system described in Craft et al., 2004b. The mice were grown in an accommodation for SPF (specific pathogen free) under 12 hours light/12 hours dark repeat, and supplied with water and feed as recommended by the accommodation for SPF. The study was reviewed and approved by the Institutional Animal Care and Use Committee (IACUC) of Asan Institute for Life Sciences, Asan Medical Center, which abides by the Institute of Laboratory Animal Resources (ILAR) guide.
(§3) The effect of KHG25967 on the change of pro-inflammatory cytokines was examined in vivo using 12-14 week old C57BL/6 mice. The control group was administered with PBS only for 2 weeks and then, further treated with PBS for 6 hours. The LPS group was administered with PBS only for 2 weeks and then, 10 mg/kg of LPS was administered into brain using streotaxis. The KHG25967 treated group was administered with 10 mg/kg or 20 mg/kg of KHG25967 every day for 2 weeks, and then, 10 mg/kg of LPS was administered into brain using streotaxis. […] The changes in the level of pro-inflammatory cytokines (interleukin-1beta and tumor necrosis factor-alpha) in the separated blood and brain were measured.

BV-2 cells = experiment: Microscope analysis of cell shape, beta-amyloid treated BV-2 cells; assay type: cell-based; details: 50 nM KHG25967 for 24 hours after 50 μM beta-amyloid for 2 hours
Experimental: BV-2 microglia cells (allotted from Pharmacology Division of Ajou University) were cultivated in DMEM (Dulbecco's Modified Eagle's Medium) supplemented with 5% fetal bovine serum (Invitrogen, Carlsbad, Calif., USA), sou/Ml penicillin (Invitrogen, Carlsbad, Calif., USA), and 50 μg/Ml streptomycin (Invitrogen, Carlsbad, Calif., USA) under the atmosphere condition with 5% CO2 and 95% air at 37° C. The medium was replaced once a day, the cells were plate-cultured in a density according to the scale of each experiment.
BV-2 cells were pre-treated with 50 μM of beta-amyloid, and 50 nM of KHG25967 compound was added to the beta-amyloid treated cells for 24 hours. For microscope analysis, BV-2 cells were used in 6-well plate at the density of 5×10^5 cells/well, for MTT analysis, BV-2 cells were used in 96-well plate at the density of 5×10^4 cells/well.
The obtained prevention effects of KHG25967 compound on toxicity induced by beta-amyloid in BV-2 cells were FIGS. 1A and 1b.

[2] = system: tumor necrosis factor-alpha; experiment: ELISA of tumor necrosis factor-alpha in LPS-treated BV-2 cells; assay type: cell-based; details: LPS 1 μg/ml for 2 hours, then 50 nM KHG25967 for 6 hours; compared to LPS only as 100%
Experimental: Lipopolysaccharide (LPS)-treated cells (6-well of 5×10^5 cells/3 Ml, Fluka, Sigma-Aldrich, St. Louis, Mo., USA) were collected, and washed with phosphate-buffered saline (PBS). The cells were centrifuged, and then dissolved in pro-prep lysis buffer at 4° C. Interleukin-1 beta and tumor necrosis factor-alpha in the cell lysis solution wherein the cells were dissolved were measured by enzyme-linked immunosorbent analysis plate (R&D systems inc, Minneapolis, Minn., USA). The absorbance at 450 nm was measured using microplate reader. In addition, cytokine was measured using a cytokine measuring system (R&D systems inc, Minneapolis, Minn., USA).
BV-2 cells were pre-treated with 1 μg/ml of LPS (Fluka, Sigma-Aldrich, St. Louis, Mo., USA) for 2 hours, and then, further treated with 50 nM KHG25967 for 6 hours. The changed amounts of cytokines of tumor necrosis factor-alpha and interleukin-1beta were measured from lysate solution where the cells were dissolved in cell lysate solution (Intron Biotechnology, Seoul, Korea).

caspase 3 = experiment: Immunoblotting of cleaved caspase 3 in beta-amyloid stimulated BV-2 cell culture; assay type: cell-based; details: beta-amyloid together with KHG25967 (50 nM) compared to beta-amyloid only
Experimental: as §1, with “condition.” for “condition. The cells were incubated in blocking buffer (20 mM Tris, pH 7.4-buffer saline containing 0.1% tween 20 containing 5% lipid-free dried milk) for 1 hour, to suppress non-specific binding.”
To examine the effect of compound KHG25967 on phosphorylation of ERK (extracellular signal-regulated kinase) and expression of caspase 3 by beta-amyloid, a possible protein expression of ERK1/2 (extracellular signal-regulated kinase 1 & 2) and caspase 3 in BV-2cell culture stimulated with beta-amyloid were measured.
The activity of caspase 3 was measured as a cleavage at aspartic acid and serine by a stimulation, which is measured using anti-cleavage-caspase 3 antibody (Cell Signaling Technology Inc, Beverly, Mass., USA) through immunoblotting analysis. […]

interleukin-1beta = experiment: LPS-induced interleukin-1beta in brain and serum of C57BL/6 mice; assay type: in vivo; details: oral KHG25967 10 mg/kg or 20 mg/kg every day for 2 weeks, then LPS 10 mg/kg into brain, 6 hours
Experimental: as §2, §3

For O=C(O)CNC(=O)Nc1nc2ccccc2s1 [KHG25967, 2-(3-benzo[d]thiazole-2-ylureido)acetic acid], the “reduction of expression level of phospho-ERK1 (FIG. 2B)” value (phospho-ERK1; beta-amyloid together with KHG25967 (50 nM) compared to beta-amyloid only) was 90%, the “increase of phospho-ERK1/2 (Western blot, FIG. 2A)” value (phospho-ERK1; culture treated with beta-amyloid in the presence of 50 nM KHG25967) was “considerably weakened” and the “level of tumor necrosis factor-alpha in blood (serum, FIG. 4D)” value [1] was “no specific difference”. For the same molecule, the “decrease of tumor necrosis factor-alpha level in brain (FIG. 4B)” value ([1]; compared with LPS only as 100%) was 42%, the “morphological characteristics of damaged cells (FIG. 1A)” value (BV-2 cells) was “alleviated” and the “suppression of tumor necrosis factor-alpha level (FIG. 3B)” value [2] was 61%. The “reduction of expression level of cleavage-caspase 3 (FIG. 2C)” value (caspase 3) was 93%, the “level of interleukin-1beta in blood (serum, FIG. 4C)” value (interleukin-1beta) was “no specific difference” and the “decrease of interleukin-1beta level in brain (FIG. 4A)” value (interleukin-1beta; compared with LPS only as 100%) was 55%.
